Data: patent publication US9688736B2, “Compound for treatment of severe hypoglycemia” (Eli Lilly and Company, priority 2013, dated 2017)
Where two headings read alike, the source gives them in different places. Square brackets hold non-standard residues; d marks the D form. Peptide text beside a SMILES is read from it. Aib = CC(C)(N)C(=O)O

Tests used:
[1] = assay type: physicochemical
Protocol: The compound of SEQ ID NO: 2 is dissolved in 20 mM Tris-HCl/H2O, pH 8 to a 1 mg/mL concentration (peptide content), and filtered through a 0.22 micron filter (Millex, SLGV004SL). Solution is transferred to three vials: one for 4° C.; one for 30° C. and one for 40° C. […]. Samples are visually assessed at different time points for turbidity and phase separation.

[2] = Physical stability test using Thioflavin T binding assay (fibrillation); assay type: physicochemical; settings: 25° C.; for Thioflavin T fluorescence: 1 mg/mL, stirred 300 rpm
Protocol: Fibrillation is a common problem when glucagon is formulated in aqueous solution. To assess the level of fibrillation of the compound of the present invention, a Thioflavin T binding assay is performed.
All samples are mechanically stressed at 25° C. in a magnetic stir plate set at 300 rpm. […] Raw data is collected with Softmax Pro 5.4.1 (Molecular Devices) and imported to Excel.

[3] = biological target: T1, mouse glucagon receptor (mGR) (Mus musculus, UniProt Q61606); test: Mouse glucagon receptor binding assay (SPA); settings: 293HEK membranes, 125I-labelled glucagon
T1 construct: expressed in transfected cells; host or cells: 293HEK cells in suspension culture (crude plasma membranes)
T1 sequence (Q61606 27-485): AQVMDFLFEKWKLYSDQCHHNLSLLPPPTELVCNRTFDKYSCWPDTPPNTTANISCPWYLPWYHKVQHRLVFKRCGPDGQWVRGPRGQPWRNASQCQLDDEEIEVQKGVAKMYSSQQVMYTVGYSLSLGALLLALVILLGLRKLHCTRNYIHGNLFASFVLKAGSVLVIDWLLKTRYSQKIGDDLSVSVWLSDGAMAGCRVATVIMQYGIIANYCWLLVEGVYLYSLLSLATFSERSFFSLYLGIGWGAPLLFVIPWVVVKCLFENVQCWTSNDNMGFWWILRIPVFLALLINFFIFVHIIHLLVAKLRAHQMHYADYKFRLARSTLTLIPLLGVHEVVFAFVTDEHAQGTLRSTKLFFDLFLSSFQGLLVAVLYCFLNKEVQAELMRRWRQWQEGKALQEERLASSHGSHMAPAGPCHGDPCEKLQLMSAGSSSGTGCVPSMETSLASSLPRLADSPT

[4] = biological target: T2, human glucagon-like peptide 1 receptor (hGLP-1R) (Homo sapiens, UniProt P43220); test: Glucagon-like-peptide 1 receptor binding assay (SPA); settings: 293HEK membranes, 125I-labelled GLP-1 amide
T2 construct: expressed in transfected cells; host or cells: 293HEK suspension cells (crude plasma membranes)
T2 sequence (P43220 24-463): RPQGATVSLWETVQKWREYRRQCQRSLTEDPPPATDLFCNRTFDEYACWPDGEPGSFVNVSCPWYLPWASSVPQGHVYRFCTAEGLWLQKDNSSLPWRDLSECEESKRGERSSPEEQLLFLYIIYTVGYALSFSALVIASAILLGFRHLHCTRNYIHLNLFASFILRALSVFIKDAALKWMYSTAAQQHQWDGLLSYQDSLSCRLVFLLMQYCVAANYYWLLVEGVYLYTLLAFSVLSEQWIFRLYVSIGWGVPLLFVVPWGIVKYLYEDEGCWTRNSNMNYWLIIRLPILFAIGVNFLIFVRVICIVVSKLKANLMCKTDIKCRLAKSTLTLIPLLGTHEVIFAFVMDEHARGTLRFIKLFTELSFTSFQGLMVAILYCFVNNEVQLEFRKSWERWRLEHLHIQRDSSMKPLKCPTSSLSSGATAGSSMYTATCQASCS

[5] = biological target: T3, human glucagon receptor (hGR) (Homo sapiens, UniProt P47871); test: Human glucagon receptor binding assay (SPA); settings: 293HEK membranes, 125I-labelled glucagon
T3 construct: expressed in transfected cells; host or cells: 293HEK (crude plasma membranes)
T3 sequence (P47871 26-477): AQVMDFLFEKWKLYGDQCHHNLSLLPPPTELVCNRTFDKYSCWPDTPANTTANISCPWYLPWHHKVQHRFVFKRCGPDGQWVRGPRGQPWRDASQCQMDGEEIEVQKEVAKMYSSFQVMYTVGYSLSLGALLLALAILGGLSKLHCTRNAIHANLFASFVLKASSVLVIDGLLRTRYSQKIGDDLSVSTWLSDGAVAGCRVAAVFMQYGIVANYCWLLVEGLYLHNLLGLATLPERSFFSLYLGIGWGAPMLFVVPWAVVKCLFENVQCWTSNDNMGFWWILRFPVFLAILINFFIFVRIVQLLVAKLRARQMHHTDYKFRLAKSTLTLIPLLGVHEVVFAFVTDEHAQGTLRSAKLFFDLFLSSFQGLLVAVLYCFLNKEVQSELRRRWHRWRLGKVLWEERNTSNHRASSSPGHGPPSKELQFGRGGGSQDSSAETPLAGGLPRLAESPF
Protocol: Plates are sealed, mixed end over end, and read with a MicroBeta® scintillation counter after 12 hours of settling time at room temperature.

human GIP-R = biological target: T4, human GIP-R (Homo sapiens, UniProt P48546); test: Glucose-dependent insulinotropic peptide receptor binding assay (SPA); settings: CHO-S membranes, radioiodinated GIP
T4 construct: expressed in transfected cells; host or cells: CHO-S suspension cells (crude plasma membranes)
T4 sequence (P48546 22-466): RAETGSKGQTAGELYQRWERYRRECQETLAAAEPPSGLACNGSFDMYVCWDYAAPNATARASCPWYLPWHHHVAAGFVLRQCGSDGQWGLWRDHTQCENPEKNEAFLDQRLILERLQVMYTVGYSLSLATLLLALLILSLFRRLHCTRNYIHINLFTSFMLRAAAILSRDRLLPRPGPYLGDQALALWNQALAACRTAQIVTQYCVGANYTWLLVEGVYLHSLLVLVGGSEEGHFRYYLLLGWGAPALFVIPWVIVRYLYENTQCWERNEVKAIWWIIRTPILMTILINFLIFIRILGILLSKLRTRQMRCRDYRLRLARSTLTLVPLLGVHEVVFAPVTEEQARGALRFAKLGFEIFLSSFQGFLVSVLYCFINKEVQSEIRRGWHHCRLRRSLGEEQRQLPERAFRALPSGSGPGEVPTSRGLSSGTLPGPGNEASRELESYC

male C57BL6 mice = test: Effects of compound on blood glucose levels in C57/B16 male mice; assay type: in vivo; settings: for Blood glucose levels after dosing: mean ± SEM, n=4
Protocol: To determine the effects of the compound of SEQ ID NO: 2 on blood glucose levels, the compound is administered to C57/B 16 mice. Three month old male C57BL6 mice (Harlan Laboratories) are used Animals are individually housed in a temperature-controlled (24° C.) facility with a 12 hour light/dark cycle, and have free access to food and water. After 1 week acclimation to the facility, mice are randomized to treatment groups (n=4/group). Test compound is formulated in Buffer 2 (see Physical stability test using Thioflavin T binding assay). On the morning of test, food is removed at 08:00 AM. Two hours after food is removed, the test compound is given subcutaneously at 0, 1, 3 or 10 μg/kg doses. Blood glucose is measured at time 0, 15, 30, 60 and 120 minutes after test compound administration with an ACCU-CHECK® (Roche Diagnostics) glucometer. […] Results are expressed as mean ±standard error mean (SEM) of 4 mice per group.
Blood glucose levels at 10 μg/kg of compound of SEQ ID NO: 2 is taken as the maximum value.

[6] = biological target: T3, human glucagon receptor (hGR); test: Human glucagon receptor stimulated cAMP functional assay; assay type: cell-based; settings: hGR-HEK293 cells, relative EC50, HTRF cAMP
Protocol: Cells are stimulated with glucagon, buffer controls, or Test samples, and the cAMP generated within the cell is quantitated using the CisBio cAMP Dynamic 2 HTRF Assay Kit (62AM4PEC). Briefly, cAMP levels within the cell are detected by binding to the cAMP-d2 capture antibody in the presence of cell lysis buffer. A second detection antibody provided in the kit, anti-cAMP Cryptate, is added to create a competitive sandwich assay. When the detection antibody complex formed there is an increase in the signal that is measured on a Perkin-Elmer Envision® instrument.
The hGR-HEK293 cells are harvested from sub-confluent tissue culture dishes with Enzyme-Free Cell Dissociation Solution (Specialty Media 5-004-B). The cells are pelleted at 100× g at room temperature for 5 minutes then washed twice with phosphate buffered saline (PBS). […] The cells are then pelleted at 100× g at room temperature for 5 minutes. […] Test samples are prepared as 2 mM stocks in DMSO and frozen at −20° C. until needed. […] The reaction is stopped by addition of 20 μL of the cAMP-d2-capture antibody (CisBio) diluted into the CisBio lysis buffer then gently mixed in [sequence] shaker. […] The lysed cell and antibody mixtures are read after 1 hour at room temperature using the Perkin-Elmer Envision®. […]

[7] = pH 8, 120 hours, mechanical stress

4° C. % Main Peak 4 wk ([1]; RP-HPLC, pH 8, 4° C., 4 wk): 95.94%
30° C. % Main Peak 4 wk ([1]; RP-HPLC, pH 8, 30° C., 4 wk): 93.73%
40° C. % Main Peak 4 wk ([1]; RP-HPLC, pH 8, 40° C., 4 wk): 89.54%
% Main Peak Day 0 ([1]; RP-HPLC, pH 8, day 0): 96.26%
Solubility by visual assessment and RP-HPLC ([1]; pH 8): maintains good solubility
RP-HPLC main peak change ([1]; pH 8, 4-wk 30° C. vs 4° C.): < 2.5%
RP-HPLC main peak change ([1]; pH 8, 4-wk 40° C. vs 4° C.): < 7%
30° C. vs 4° C. Recovery 4 wk ([1]; pH 8, total peak area, 4 wk): 101%
40° C. vs 4° C. Recovery 4 wk ([1]; pH 8, total peak area, 4 wk): 99%
Physical stability by visual assessment and Thioflavin T binding [2, 7]: maintains physical stability
Thioflavin T fluorescence ([2]; Buffer 1 (20 mM Tris-HCl pH 8.0), t = 0 h): 193.9 flurescence units
Thioflavin T fluorescence ([2]; Buffer 1 (20 mM Tris-HCl pH 8.0), t = 40 h): 201.6 flurescence units
Thioflavin T fluorescence ([2]; Buffer 1 (20 mM Tris-HCl pH 8.0), t = 120 h): 226.1 flurescence units
Thioflavin T fluorescence ([2]; Buffer 2 (20 mM Tris-HCl, 150 nM NaCl, pH 8.0), t = 0 h): 182.2 flurescence units
Thioflavin T fluorescence ([2]; Buffer 2 (20 mM Tris-HCl, 150 nM NaCl, pH 8.0), t = 40 h): 210.1 flurescence units
Thioflavin T fluorescence ([2]; Buffer 2 (20 mM Tris-HCl, 150 nM NaCl, pH 8.0), t = 120 h): 213.6 flurescence units
Thioflavin T fluorescence ([2]; Buffer 3 (20 mM Tris-HCl, 300 mM sucrose, pH 8.0), t = 0 h): 263.3 flurescence units
Thioflavin T fluorescence ([2]; Buffer 3 (20 mM Tris-HCl, 300 mM sucrose, pH 8.0), t = 40 h): 297.0 flurescence units
Thioflavin T fluorescence ([2]; Buffer 3 (20 mM Tris-HCl, 300 mM sucrose, pH 8.0), t = 120 h): 310.9 flurescence units
Thioflavin T fluorescence ([2]; Buffer 4 (20 mM Tris-HCl, 300 mM sorbitol, pH 8.0), t = 0 h): 260.9 flurescence units
Thioflavin T fluorescence ([2]; Buffer 4 (20 mM Tris-HCl, 300 mM sorbitol, pH 8.0), t = 40 h): 285.1 flurescence units
Thioflavin T fluorescence ([2]; Buffer 4 (20 mM Tris-HCl, 300 mM sorbitol, pH 8.0), t = 120 h): 311.2 flurescence units
Thioflavin T fluorescence ([2]; Buffer 5 (20 mM Tris-HCl, 0.02% Tween 80, pH 8.0), t = 0 h): 251.7 flurescence units
Thioflavin T fluorescence ([2]; Buffer 5 (20 mM Tris-HCl, 0.02% Tween 80, pH 8.0), t = 40 h): 281.7 flurescence units
Thioflavin T fluorescence ([2]; Buffer 5 (20 mM Tris-HCl, 0.02% Tween 80, pH 8.0), t = 120 h): 306.8 flurescence units
Ki [3]: 8.63 ± 0.71 nM
Ki [4]: > 3380 nM
Ki [5]: 3.2 ± 0.76 nM
Ki (human GIP-R): > 2240 nM
EC50 [6]: 0.0658 ± 0.0167 nM
Compound: CC(C)C[C@H](NC(=O)[C@H](Cc1c[nH]c2ccccc12)NC(=O)[C@H](C)NC(=O)[C@@H](NC(=O)[C@H](Cc1ccccc1)NC(=O)[C@H](CCC(=O)O)NC(=O)[C@H](C)NC(=O)[C@H](C)NC(=O)[C@H](CCCCN)NC(=O)[C@H](CCCCN)NC(=O)C(C)(C)NC(=O)[C@H](CC(=O)O)NC(=O)[C@H](CC(C)C)NC(=O)[C@H](Cc1ccc(O)cc1)NC(=O)[C@H](CCCCN)NC(=O)[C@H](CO)NC(=O)[C@@H](NC(=O)[C@H](CC(=O)O)NC(=O)[C@H](CO)NC(=O)[C@@H](NC(=O)[C@H](Cc1ccccc1)NC(=O)[C@@H](NC(=O)CNC(=O)[C@H](Cc1c[nH]cn1)NC(=O)[C@H](CO)NC(=O)[C@@H](N)Cc1ccc(O)cc1)[C@@H](C)O)[C@@H](C)O)C(C)C)C(C)C)C(=O)N[C@@H](CC(C)C)C(=O)N[C@@H](CCC(=O)O)C(=O)N[C@@H](CCC(=O)O)C(=O)O [SEQ ID NO: 2] (H-YSHGTFTSDVSKYLD[Aib]KKAAEFVAWLLEE-OH; N-terminus assumed)
Fibrillation as measured by the Thioflavin T binding assay [2, 7]: did not demonstrate significant fibrillation
Blood glucose levels after dosing (male C57BL6 mice; 1 μg/kg subcutaneously, 0 minutes): 132.0 ± 4.1 mg/dL
Blood glucose levels after dosing (male C57BL6 mice; 1 μg/kg subcutaneously, 15 minutes): 203.0 ± 15.8 mg/dL
Blood glucose levels after dosing (male C57BL6 mice; 1 μg/kg subcutaneously, 30 minutes): 220.4 ± 21.4 mg/dL
Blood glucose levels after dosing (male C57BL6 mice; 1 μg/kg subcutaneously, 60 minutes): 171.6 ± 10.2 mg/dL
Blood glucose levels after dosing (male C57BL6 mice; 1 μg/kg subcutaneously, 120 minutes): 168.9 ± 3.7 mg/dL
Blood glucose levels after dosing (male C57BL6 mice; 3 μg/kg subcutaneously, 0 minutes): 147.8 ± 2.6 mg/dL
Blood glucose levels after dosing (male C57BL6 mice; 3 μg/kg subcutaneously, 15 minutes): 246.4 ± 13.1 mg/dL
Blood glucose levels after dosing (male C57BL6 mice; 3 μg/kg subcutaneously, 30 minutes): 274.9 ± 16.3 mg/dL
Blood glucose levels after dosing (male C57BL6 mice; 3 μg/kg subcutaneously, 60 minutes): 201.1 ± 13.2 mg/dL
Blood glucose levels after dosing (male C57BL6 mice; 3 μg/kg subcutaneously, 120 minutes): 172.8 ± 8.9 mg/dL
Blood glucose levels after dosing (male C57BL6 mice; 10 μg/kg subcutaneously, 0 minutes): 146.0 ± 8.2 mg/dL
Blood glucose levels after dosing (male C57BL6 mice; 10 μg/kg subcutaneously, 15 minutes): 257.3 ± 7.7 mg/dL
Blood glucose levels after dosing (male C57BL6 mice; 10 μg/kg subcutaneously, 30 minutes): 294.0 ± 13.3 mg/dL
Blood glucose levels after dosing (male C57BL6 mice; 10 μg/kg subcutaneously, 60 minutes): 222.2 ± 13.9 mg/dL
Blood glucose levels after dosing (male C57BL6 mice; 10 μg/kg subcutaneously, 120 minutes): 147.0 ± 6.7 mg/dL
ED50 (blood glucose increase) (male C57BL6 mice; calculated on the 30 minute glucose measurements, 10 μg/kg taken as maximum, subcutaneous): 3.34 µg/kg
